Results: patent US7931904B2, “Modulation of MUC1 activity” (Dana Farber Cancer Institute, Inc., priority 2005, dated 2011)

Assays:
p53 [1] = target: T1, p53 (Homo sapiens, UniProt P04637); test: GST pull-down of 35S-labeled p53 by GST-MUC1-CD variants; format: binding; details: GST fusion proteins, 90 min at 4° C.
T1 construct: made in house; host or cells: cell-free TNT in vitro transcription/translation reaction (Promega)
Description: GST pull-down assays. […] After washing, the adsorbed proteins were resolved by SDS-PAGE and analyzed by autoradiography or Coomassie blue staining.

p53 [2] = target: p53 (Homo sapiens, UniProt P04637, R273H); test: Co-immunoprecipitation of Myc-MUC1-CD variants with p53 in transfected U2OS cells; format: cell-based; details: transiently transfected U2OS cells
Description: (§1) Immunoblotting and immunoprecipitation. Cell lysates were prepared from subconfluent cells as previously described [Wei et al. (2003) J. Biol. Chem. 278:29288-29297]. Immunoblot analysis was performed with anti-p53 antibody (Ab-2, Ab-6; Oncogene Research Products, San Diego, Calif.), anti-MUC1 N-ter antibody [the DF3 monoclonal antibody that binds to the N-terminal segment of human MUC1; Kufe et al. (1984) Hybridoma 3:223-232], anti-MUC1 C-ter antibody (Ab-5 that binds to the C-terminal segment of human MUC1; Neomarkers, Freemont, Calif.), anti-β-actin antibody (Sigma), anti-Myc antibody (Ab-1; Oncogene Research Products), anti-Bax antibody antibody (Santa Cruz Biotechnology; Santa Cruz, Calif.) and anti-p21 (Santa Cruz Biotechnology). Lysates were subjected to immunoprecipitation with anti-p53 or anti-Myc antibody and the immune complexes were analyzed by immunoblotting.
Plasmid construction and transfection. […] Transfections were performed in 60 mm tissue culture dishes using Fugene®-6 (Roche Applied Science, Indianapolis, Ind.) or, for the luciferase assays, in 24 well tissue culture plates using the calcium phosphate method (Invitrogen, Carlsbad, Calif.). […]

HCT116/MUC1 cells [3] = test: anti-p53 immunoprecipitation and anti-MUC1 C-ter immunoblot; format: cell-based, human; details: 50 or 100 μM, 24 h
Description: as §1

ZR-75-1 cells [4] = test: as above; format: cell-based, human; details: 50 or 100 μM, 24 h
Description: as §1

HCT116/MUC1 cells [5] = test: ChIP with anti-MUC1 C-ter antibody, p21 gene p53RE2; format: cell-based, human; details: 50 μM, kinetic analysis
Description: (§2) Chromatin immunoprecipitation (ChIP) and Repeat ChIP (Re-ChIP) assays. ChIP assays were performed as previously described [Shang et al. (2000) Cell 103:843-852] using anti-MUC1 C-ter antibody, anti-p53 antibody (Ab-6; Oncogene Research Products), anti-CBP antibody (C-1; Santa Cruz Biotechnology), anti-HDAC1 antibody (Upstate Biotechnology Inc., Waltham, Mass.), anti-Ac-H4 (Upstate Biotechnology Inc.), anti-TBP antibody (58C9; Santa Cruz Biotechnology), anti-TFIIB antibody (IIB8; Santa Cruz Biotechnology), or anti-TAFII250 antibody (6B3; Santa Cruz Biotechnology). For PCR, 2 μl from a 50 μl DNA extraction were used with 30-38 cycles of amplification. The primers for the p21 gene promoter p53-responsive elements (p53RE1 and p53RE2) have been previously described [Liu et al. (2003) J. Biol. Chem. 277:17557-17565]. The primers for the p21 gene control region (CR) were (forward: 5′-[…]-3′ (SEQ ID NO:14); reverse 5′-[…]-3′ (SEQ ID NO:15)) and the p21 gene PP were (forward: 5′-[…]-3′ (SEQ ID NO:16); reverse: 5′-[…]-3′ (SEQ ID NO:17)). Primers used for the Bax gene promoter p53RE were (forward: 5′-[…]-3′ (SEQ ID NO:18); reverse: 5′-[…]-3′ (SEQ ID NO:19)), Bax gene control region (CR) were (forward: 5′-[…]-3′ (SEQ ID NO:20); reverse: 5′-[…]-3′ (SEQ ID NO:21)) and the Bax gene PP were (forward: 5′-[…]-3′ (SEQ ID NO:22); reverse: 5′-[…]-3′ (SEQ ID NO:23)).

ZR-75-1 cells [6] = test: as above; format: cell-based, human; details: 50 μM, kinetic analysis
Description: as §2

HCT116/vector cells [7] = test: ChIP with anti-p53 antibody, p21 gene p53RE2; format: cell-based, human; details: 50 μM, 8 h
Description: as §2

HCT116/MUC1 cells [8] = test: ChIP with anti-MUC1 C-ter antibody, Bax gene PP; format: cell-based, human; details: 50 μM, time course
Description: as §2

ZR-75-1 cells [9] = test: ChIP with anti-MUC1 C-ter antibody, Bax gene PP; format: cell-based, human; details: 50 μM, time course
Description: as §2

HCT116/MUC1 cells [10] = test: Flow cytometry of cell cycle (DNA content); format: cell-based, human; details: 48 h
Description: (§3) Flow cytometry. Cells were fixed with 80% ice-cold ethanol, incubated in phosphate buffered saline (PBS) containing 30 μg/ml RNase (Roche Applied Science) for 60 min at 37° C. and then stained with propidium iodide (Sigma) for 30 min at room temperature in the dark. DNA content was analyzed by flow cytometry (Coulter EPICS XL-MCL; Miami, Fla.).

HCT116/vector cells [11] = test: Flow cytometry of cell cycle (DNA content); format: cell-based, human; details: 48 h
Description: as §3

[12] = test system: HCT116/MUC1 as compared to HCT116/vector cells; test: Colony formation assay; format: cell-based, human; details: 12-48 h treatment, 8 d culture
Description: (§4) Colony formation assays. Aliquots containing 500 cells were plated into individual wells of 6-well culture plates containing 2 ml/well complete medium and incubated for 18-24 h at 37° C. The cells were treated with CDDP or etoposide for 12-48 h, washed and incubated for 8 d. Resulting colonies were stained with crystal violet and counted manually.

ZR-75-1 cells [13] = test: Colony formation assay; format: cell-based, human; details: ZR-75-1/vector vs ZR-75-1/MUC1siRNA cells, 12-48 h treatment, 8 d culture
Description: as §4

| Compound | binding to 35S-labeled p53 in vitro (p53 [1]) | complex formation with p53 in cells (p53 [2]) | association of p53 and MUC1 (HCT116/MUC1 cells [3]) | binding of endogenous MUC1 and p53 (ZR-75-1 cells [4]) | MUC1 occupancy of p21 gene p53RE2 (HCT116/MUC1 cells [5]) | MUC1 occupancy of p21 gene p53RE2 (ZR-75-1 cells [6]) | p53 occupancy of the p21 gene p53RE2 (HCT116/vector cells [7]) | MUC1 occupancy of the Bax gene PP (HCT116/MUC1 cells [8]) | MUC1 occupancy of the Bax gene PP (ZR-75-1 cells [9]) | cell cycle progression (HCT116/MUC1 cells [10]) | cell cycle progression (HCT116/vector cells [11]) | clonogenic survival of drug-treated cells [12] | clonogenic survival following drug treatment (ZR-75-1 cells [13]) |
| --- | --- | --- | --- | --- | --- | --- | --- | --- | --- | --- | --- | --- | --- |
| MUC1-CD(1-51): deletion variant of MUC1-CD, amino acids 1-51 (SEQ ID NO:5) (CQCRRKNYGQLDIFPARDAYHPMSEYPTYHTHGRYVPPSSTNRSPYEKVSE; listed as Homo sapiens) | sufficient to form a complex with p53 in vitro | in vivo binding of p53 |  |  |  |  |  |  |  |  |  |  |  |
| COc1cc([C@@H]2c3cc4c(cc3[C@@H](O[C@@H]3O[C@@H]5CO[C@@H](C)O[C@H]5[C@H](O)[C@H]3O)[C@H]3COC(=O)[C@H]23)OCO4)cc(OC)c1O [etoposide] |  |  | increase in the association of p53 and MUC1 | Increased binding of endogenous MUC1 and p53 | increases | increases | increased | increased through 4-6 h | increased through 4-6 h | G1 arrest of cell cycle progression | G1 arrest of cell cycle progression | higher | increased by MUC1 expression |
| N.N.[Cl][Pt][Cl] [cisplatin] |  |  | increase in the association of p53 and MUC1 | Increased binding of endogenous MUC1 and p53 | increases | increases | increased | increased through 4-6 h | increased through 4-6 h | G1 arrest of cell cycle progression | G1 arrest of cell cycle progression | higher | increased by MUC1 expression |
